{"source": "patent US9375493B2", "about": "“Bacterial imaging agents and methods of using same” (VisEn Medical, Inc., priority 2012, dated 2016)", "key": {"Escherichia coli [1]": {"test_system": "Escherichia coli", "assay": "In vivo imaging of Escherichia coli thigh infection (FMT2500)", "set-up": "species or system SKH1-E female mice", "settings": "10^5-10^8 CFUs i.m. left thigh; 5 nM agent i.v. about 24 hours after inoculation; imaged one hour after agent injection", "experimental": "SKH1-E female mice, aged 6-8 weeks, were injected intramuscularly in the left thigh with different concentrations of Escherichia coli at 10^5-10^8 CFUs. At approximately 24 hours after the initial bacterial inoculation, mice were given intravenous injections of 5 nM of bacterium targeting agent, compound A7."}, "[2]": {"test_system": "Staphylococcus epidermidis", "assay": "In vivo imaging of Staphylococcus epidermidis thigh infection (FMT2500)", "set-up": "species or system SKH1-E female mice", "settings": "10^8 CFUs i.m. left thigh; 5 nM agent i.v. about 24 hours after inoculation; imaged one, two and three hours after agent injection; all time points", "experimental": "SKH1-E female mice, aged 6-8 weeks, were injected intramuscularly with 10^8 CFUs (colony forming units) of Staphylococcus epidermidis in the left thigh. Mice were given intravenous injections of 5 nM of bacterium targeting agent, compound A7, approximately 24 hours after the initial bacterial inoculation."}, "Escherichia coli [3]": {"test_system": "Escherichia coli", "assay": "In vitro binding of bacterium targeting agent to bacteria, flow cytometry", "assay_type": "cell-based", "settings": "10 μM final in TES buffer, RT, 1 hour; FIG. 1A/1B", "experimental": "(§1) Bacteria were grown at 37° C. to an OD600=0.3-0.5 and centrifuged at 3500 rpm for 4 minutes before the subsequent pellets were re-suspended in TES buffer. Bacteria with or without targeting agent were grown under the same conditions. Bacterial targeting agents, compound A7, were incubated with bacterial pellets at a concentration of 10 μM final in TES buffer at RT for 1 hour. […] In this experiment, fluorescence is only associated with bacteria in the presence of the bacterium targeting agent described herein."}, "[4]": {"test_system": "Staphylococcus epidermidis", "assay": "In vitro binding of bacterium targeting agent to bacteria, flow cytometry", "assay_type": "cell-based", "settings": "10 μM final in TES buffer, RT, 1 hour; FIG. 1A/1B", "experimental": "as §1"}}}
{"smiles": "CN1/C(=C/C=C(/C=C/C2=[N+](CCCS(=O)(=O)O)c3ccccc3C2(C)C)c2ccc(C(=O)NCCCCCC(=O)NCC(=O)Nc3ccc(CC[N+]45CC[N+](C)(CC4)CC5)cc3)cn2)C(C)(C)c2ccccc21", "note": "[Compound A7, 3-(3,3-dimethyl-2-((1E,3Z,5E)-3-(5-((6-((2-((4-(2-(4-methyl-1,4-diazabicyclo[2.2.2]octan-1,4-diium-1-yl)ethyl)phenyl)amino)-2-oxoethyl)amino)-6-oxohexyl)carbamoyl)pyridin-2-yl)-5-(1,3,3-trimethylindolin-2-ylidene)penta-1,3-dien-1-yl)-3H-indol-1-ium-1-yl)propane-1-sulfonate di-acetate]", "values": [{"measurement": "uptake of the agent at the site of infection (tomographic images)", "setting": "Escherichia coli [1]", "result": "clear uptake of the bacterial targeting agent at the site of the infection"}, {"measurement": "differentiation between infected and uninfected areas (fluorescence, tomographic imaging)", "setting": "[2]", "result": "Statistically significant differentiation between infected and uninfected areas"}, {"measurement": "in vitro binding to bacteria (fluorescence by flow cytometry)", "setting": "Escherichia coli [3]", "result": "in vitro binding"}, {"measurement": "in vitro binding to bacteria (fluorescence by flow cytometry)", "setting": "[4]", "result": "in vitro binding"}]}
